Results on two molecules are retold here after ChEMBL document CHEMBL4507256 (2021).

The target in data set [1] is Galanin receptor type 1 (Homo sapiens) (UniProt P47211). Nature of the data set: GAL1 (h) CEREP ligand profiling. To be noted: Compound concentration 10.0 uM.
For data set [2], the target named is T1, 5-hydroxytryptamine receptor 3A (Homo sapiens) (UniProt P46098).
T1 sequence (whole entry): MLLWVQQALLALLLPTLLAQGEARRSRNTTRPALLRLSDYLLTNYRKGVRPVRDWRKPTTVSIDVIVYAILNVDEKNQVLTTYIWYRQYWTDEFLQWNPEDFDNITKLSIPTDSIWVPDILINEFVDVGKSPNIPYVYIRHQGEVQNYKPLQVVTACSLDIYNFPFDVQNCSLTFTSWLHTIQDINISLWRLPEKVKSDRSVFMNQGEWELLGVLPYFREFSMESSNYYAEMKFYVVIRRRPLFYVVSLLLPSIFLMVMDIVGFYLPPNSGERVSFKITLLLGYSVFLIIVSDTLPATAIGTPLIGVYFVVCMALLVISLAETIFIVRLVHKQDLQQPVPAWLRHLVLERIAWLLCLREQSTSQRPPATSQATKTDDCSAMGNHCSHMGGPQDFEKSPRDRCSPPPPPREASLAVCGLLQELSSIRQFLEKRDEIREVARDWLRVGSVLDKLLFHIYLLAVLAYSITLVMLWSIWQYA
The experiment in a line: 5-HT3 (h) CEREP ligand profiling. To be noted: Compound concentration 10.0 uM.

In data set [3] the target is Substance-K receptor (Homo sapiens) (UniProt P21452). The experiment in a line: NK2 (h) CEREP ligand profiling. To be noted: Compound concentration 10.0 uM.
Data set [4] addresses Muscarinic acetylcholine receptor M3 (Homo sapiens) (UniProt P20309). The experiment in a line: M3 (h) CEREP ligand profiling. To be noted: Compound concentration 10.0 uM.
The target in data set [5] is Endothelin-1 receptor (Homo sapiens) (UniProt P25101). Nature of the data set: ETA (h) CEREP ligand profiling. To be noted: Compound concentration 10.0 uM.
For data set [6], the target named is Kappa-type opioid receptor (Cavia porcellus) (UniProt P41144). The experiment in a line: kappa (guinea pig) CEREP ligand profiling. To be noted: Compound concentration 10.0 uM.
The target of data set [7] is Gastrin/cholecystokinin type B receptor (Homo sapiens) (UniProt P32239). Nature of the data set: CCKB (h) CEREP ligand profiling. To be noted: Compound concentration 10.0 uM.
For data set [8], the target named is T2, Muscarinic acetylcholine receptor M5 (Homo sapiens) (UniProt P08912).
T2 sequence (whole entry): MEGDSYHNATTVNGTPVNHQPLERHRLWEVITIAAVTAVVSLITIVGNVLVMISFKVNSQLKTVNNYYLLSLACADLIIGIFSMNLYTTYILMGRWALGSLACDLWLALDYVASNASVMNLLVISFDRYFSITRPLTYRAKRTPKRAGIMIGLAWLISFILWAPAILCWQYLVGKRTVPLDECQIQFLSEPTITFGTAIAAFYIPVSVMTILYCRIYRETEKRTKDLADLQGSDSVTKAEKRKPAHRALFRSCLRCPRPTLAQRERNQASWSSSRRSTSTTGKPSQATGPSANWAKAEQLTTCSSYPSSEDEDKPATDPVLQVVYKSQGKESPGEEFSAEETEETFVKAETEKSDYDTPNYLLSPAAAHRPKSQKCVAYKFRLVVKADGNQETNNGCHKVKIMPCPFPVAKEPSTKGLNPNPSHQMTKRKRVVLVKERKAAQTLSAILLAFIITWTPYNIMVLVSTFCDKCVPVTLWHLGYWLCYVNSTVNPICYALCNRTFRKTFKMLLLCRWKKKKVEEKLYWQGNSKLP
The experiment in a line: M5 (h) CEREP ligand profiling. To be noted: Compound concentration 10.0 uM.

In data set [9] the target is Translocator protein (Rattus norvegicus) (UniProt P16257). The experiment in a line: BZD-peripheral CEREP ligand profiling. To be noted: Compound concentration 10.0 uM.
Data set [10] addresses Sodium-dependent noradrenaline transporter (Homo sapiens) (UniProt P23975). The experiment in a line: NE transporter CEREP ligand profiling. To be noted: Compound concentration 10.0 uM.
The target of data set [11] is Endothelin receptor type B (Homo sapiens) (UniProt P24530). Nature of the data set: ETB (h) CEREP ligand profiling. To be noted: Compound concentration 10.0 uM.
Data set [12] deals with Tumor necrosis factor (Homo sapiens) (UniProt P01375). Nature of the data set: TNF-alpha (h) CEREP ligand profiling. To be noted: Compound concentration 10.0 uM.
In data set [13] the target is T3, 5-hydroxytryptamine receptor 2C (Homo sapiens) (UniProt P28335).
T3 sequence (whole entry): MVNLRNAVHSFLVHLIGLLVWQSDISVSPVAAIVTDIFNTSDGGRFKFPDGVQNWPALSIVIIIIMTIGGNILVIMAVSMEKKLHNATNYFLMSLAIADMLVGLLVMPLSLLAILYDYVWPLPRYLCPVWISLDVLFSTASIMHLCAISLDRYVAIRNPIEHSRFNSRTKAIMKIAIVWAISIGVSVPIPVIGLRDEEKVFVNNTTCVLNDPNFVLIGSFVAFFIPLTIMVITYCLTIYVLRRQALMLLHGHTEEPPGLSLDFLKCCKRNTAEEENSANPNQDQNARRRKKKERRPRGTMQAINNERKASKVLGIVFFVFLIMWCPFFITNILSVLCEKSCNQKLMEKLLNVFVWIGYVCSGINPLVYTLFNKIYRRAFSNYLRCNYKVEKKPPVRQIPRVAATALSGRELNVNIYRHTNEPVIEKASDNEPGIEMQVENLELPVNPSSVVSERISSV
Nature of the data set: 5-HT2C (h) CEREP ligand profiling. To be noted: Compound concentration 10.0 uM.

In data set [14] the target is Platelet-derived growth factor receptor (Homo sapiens) (UniProt P09619+P16234). The experiment in a line: PDGF CEREP ligand profiling. Type of data set: protein-complex assay. To be noted: Compound concentration 10.0 uM.
Data set [15] concerns the target D(3) dopamine receptor (Homo sapiens) (UniProt P35462). Nature of the data set: D3 (h) CEREP ligand profiling. To be noted: Compound concentration 10.0 uM.
The target in data set [16] is Bombesin receptor (Homo sapiens) (UniProt P28336+P32247+P30550). The experiment in a line: BB (non-select) CEREP ligand profiling. Type of data set: protein assay. To be noted: Compound concentration 10.0 uM.
Data set [17] addresses T4, D(4) dopamine receptor (Homo sapiens) (UniProt P21917).
T4 sequence (whole entry): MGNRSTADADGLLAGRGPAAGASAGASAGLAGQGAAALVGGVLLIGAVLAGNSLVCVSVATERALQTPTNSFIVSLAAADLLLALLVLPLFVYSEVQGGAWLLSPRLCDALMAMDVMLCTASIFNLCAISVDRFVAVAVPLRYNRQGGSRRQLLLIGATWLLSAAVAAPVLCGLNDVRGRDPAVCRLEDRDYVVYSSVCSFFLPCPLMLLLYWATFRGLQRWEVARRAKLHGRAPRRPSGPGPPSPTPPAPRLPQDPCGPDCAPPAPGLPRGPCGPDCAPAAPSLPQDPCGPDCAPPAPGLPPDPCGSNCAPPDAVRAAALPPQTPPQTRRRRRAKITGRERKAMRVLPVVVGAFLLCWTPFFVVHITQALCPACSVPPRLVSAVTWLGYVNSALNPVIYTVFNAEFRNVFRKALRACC
The experiment in a line: D4.4 (h) CEREP ligand profiling. To be noted: Compound concentration 10.0 uM.

Data set [18] concerns the target Ca2+ channel (voltage-gated L-type calcium channel family) (Homo sapiens, UniProt O60840+Q01668+Q13698+Q13936). Nature of the data set: Ca2+ channel CEREP ligand profiling. Format: protein assay. To be noted: probe penylalkylamine (ligand); compound concentration 10 uM.
Data set [19] addresses Type-1 angiotensin II receptor (Homo sapiens) (UniProt P30556). Nature of the data set: AT1 (h) CEREP ligand profiling. To be noted: Compound concentration 10.0 uM.
Data set [20] deals with Beta-1 adrenergic receptor (Homo sapiens) (UniProt P08588). To be noted: Compound concentration 10.0 uM.
The target in data set [21] is Dual specificity mitogen-activated protein kinase kinase 5 (Homo sapiens) (UniProt Q13163). To be noted: Compound concentration 1000.0 nM.

Each structure is given as a SMILES string.

For orientation: inhibition means the relative decrease from the control value, in per cent.

Kappa-type opioid receptor (Cavia porcellus), sequence (P41144 whole entry, looked up): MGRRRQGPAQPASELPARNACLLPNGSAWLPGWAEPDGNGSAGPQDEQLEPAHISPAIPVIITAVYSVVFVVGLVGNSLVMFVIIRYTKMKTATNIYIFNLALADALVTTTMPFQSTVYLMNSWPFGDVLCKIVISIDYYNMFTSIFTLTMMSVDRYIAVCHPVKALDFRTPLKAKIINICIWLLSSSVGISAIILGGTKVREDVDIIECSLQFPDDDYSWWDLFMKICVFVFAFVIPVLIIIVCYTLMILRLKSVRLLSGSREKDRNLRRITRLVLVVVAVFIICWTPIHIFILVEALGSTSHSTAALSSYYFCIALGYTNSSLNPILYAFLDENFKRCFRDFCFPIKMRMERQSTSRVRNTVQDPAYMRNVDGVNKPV
Translocator protein (Rattus norvegicus), sequence (P16257 whole entry, looked up): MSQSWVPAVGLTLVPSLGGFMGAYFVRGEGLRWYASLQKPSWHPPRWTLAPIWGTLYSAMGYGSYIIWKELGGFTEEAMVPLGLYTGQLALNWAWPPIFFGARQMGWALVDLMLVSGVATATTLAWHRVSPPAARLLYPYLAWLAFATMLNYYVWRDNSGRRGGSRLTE
Type-1 angiotensin II receptor (Homo sapiens), sequence (P30556 whole entry): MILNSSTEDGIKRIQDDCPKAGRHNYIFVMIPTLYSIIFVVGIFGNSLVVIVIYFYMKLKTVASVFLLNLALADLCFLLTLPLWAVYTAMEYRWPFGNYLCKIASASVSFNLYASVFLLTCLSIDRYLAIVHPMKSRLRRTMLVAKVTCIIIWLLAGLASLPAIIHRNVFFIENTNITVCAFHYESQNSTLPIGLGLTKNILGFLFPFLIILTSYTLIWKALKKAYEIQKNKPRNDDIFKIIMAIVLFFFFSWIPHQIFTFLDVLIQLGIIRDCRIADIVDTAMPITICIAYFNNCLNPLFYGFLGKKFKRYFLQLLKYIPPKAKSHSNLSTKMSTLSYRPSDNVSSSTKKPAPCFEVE
Bombesin receptor (Homo sapiens), sequence (P28336 whole entry, looked up): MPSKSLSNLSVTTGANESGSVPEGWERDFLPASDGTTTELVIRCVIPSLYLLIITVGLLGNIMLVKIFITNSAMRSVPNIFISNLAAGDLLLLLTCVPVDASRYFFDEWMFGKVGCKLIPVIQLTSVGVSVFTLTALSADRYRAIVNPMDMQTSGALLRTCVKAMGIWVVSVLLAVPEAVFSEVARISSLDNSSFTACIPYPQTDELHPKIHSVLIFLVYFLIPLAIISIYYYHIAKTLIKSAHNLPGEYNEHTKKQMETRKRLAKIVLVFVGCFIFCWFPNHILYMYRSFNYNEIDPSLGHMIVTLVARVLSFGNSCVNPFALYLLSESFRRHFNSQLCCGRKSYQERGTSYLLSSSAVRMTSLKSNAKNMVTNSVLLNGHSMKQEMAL
Bombesin receptor (Homo sapiens), sequence (P30550 whole entry, looked up): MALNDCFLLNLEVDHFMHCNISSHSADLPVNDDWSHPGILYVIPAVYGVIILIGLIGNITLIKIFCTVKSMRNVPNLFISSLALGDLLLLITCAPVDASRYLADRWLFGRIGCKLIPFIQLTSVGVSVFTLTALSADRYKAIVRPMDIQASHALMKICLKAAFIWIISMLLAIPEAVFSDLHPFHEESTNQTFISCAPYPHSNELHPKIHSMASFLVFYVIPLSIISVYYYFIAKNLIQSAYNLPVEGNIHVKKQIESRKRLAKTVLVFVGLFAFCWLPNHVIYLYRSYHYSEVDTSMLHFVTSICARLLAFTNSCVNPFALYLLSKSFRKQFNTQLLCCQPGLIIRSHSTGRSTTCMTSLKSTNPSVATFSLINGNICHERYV
Bombesin receptor (Homo sapiens), sequence (P32247 whole entry, looked up): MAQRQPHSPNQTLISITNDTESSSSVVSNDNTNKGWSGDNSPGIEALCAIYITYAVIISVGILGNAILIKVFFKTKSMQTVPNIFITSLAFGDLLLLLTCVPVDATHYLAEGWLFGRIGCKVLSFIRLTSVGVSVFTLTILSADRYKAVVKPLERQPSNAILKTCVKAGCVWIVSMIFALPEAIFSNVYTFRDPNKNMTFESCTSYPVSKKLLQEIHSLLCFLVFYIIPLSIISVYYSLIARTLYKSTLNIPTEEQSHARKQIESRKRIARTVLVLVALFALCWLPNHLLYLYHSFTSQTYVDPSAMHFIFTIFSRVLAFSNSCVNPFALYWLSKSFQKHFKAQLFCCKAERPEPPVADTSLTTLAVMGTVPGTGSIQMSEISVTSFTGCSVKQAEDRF
D(3) dopamine receptor (Homo sapiens), sequence (P35462 whole entry): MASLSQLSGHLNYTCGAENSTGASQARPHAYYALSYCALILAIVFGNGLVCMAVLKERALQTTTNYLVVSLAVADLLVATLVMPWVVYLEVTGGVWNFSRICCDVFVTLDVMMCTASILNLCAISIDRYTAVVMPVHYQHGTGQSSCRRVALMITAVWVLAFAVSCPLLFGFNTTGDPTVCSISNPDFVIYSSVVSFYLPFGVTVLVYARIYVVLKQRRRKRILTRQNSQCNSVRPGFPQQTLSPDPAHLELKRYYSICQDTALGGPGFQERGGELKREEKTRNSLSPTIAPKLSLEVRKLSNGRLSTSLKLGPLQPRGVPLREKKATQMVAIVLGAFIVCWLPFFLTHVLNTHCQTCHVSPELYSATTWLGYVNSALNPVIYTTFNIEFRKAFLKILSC
Dual specificity mitogen-activated protein kinase kinase 5 (Homo sapiens), sequence (Q13163 whole entry): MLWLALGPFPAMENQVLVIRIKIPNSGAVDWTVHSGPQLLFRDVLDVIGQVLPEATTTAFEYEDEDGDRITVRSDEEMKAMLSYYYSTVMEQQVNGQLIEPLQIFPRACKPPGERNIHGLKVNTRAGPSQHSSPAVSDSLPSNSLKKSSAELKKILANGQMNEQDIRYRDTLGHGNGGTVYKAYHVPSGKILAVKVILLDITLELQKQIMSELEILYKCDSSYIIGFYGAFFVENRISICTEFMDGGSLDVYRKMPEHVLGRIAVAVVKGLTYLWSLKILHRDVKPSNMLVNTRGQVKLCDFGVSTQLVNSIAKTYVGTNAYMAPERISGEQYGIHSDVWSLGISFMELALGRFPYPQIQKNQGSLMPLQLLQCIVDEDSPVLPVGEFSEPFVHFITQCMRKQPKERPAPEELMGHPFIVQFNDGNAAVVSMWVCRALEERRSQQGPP
Galanin receptor type 1 (Homo sapiens), sequence (P47211 whole entry): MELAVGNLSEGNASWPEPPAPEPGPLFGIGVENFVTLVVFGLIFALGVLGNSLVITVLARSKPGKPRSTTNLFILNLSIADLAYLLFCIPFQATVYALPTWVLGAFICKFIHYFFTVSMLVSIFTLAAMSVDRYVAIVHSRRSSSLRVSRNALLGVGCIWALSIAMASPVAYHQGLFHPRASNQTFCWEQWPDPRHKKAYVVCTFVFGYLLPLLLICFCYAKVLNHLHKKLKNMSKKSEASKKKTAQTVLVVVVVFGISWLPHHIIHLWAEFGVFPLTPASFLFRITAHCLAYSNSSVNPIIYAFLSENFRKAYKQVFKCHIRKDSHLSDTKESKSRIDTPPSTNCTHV
Beta-1 adrenergic receptor (Homo sapiens), sequence (P08588 whole entry, looked up): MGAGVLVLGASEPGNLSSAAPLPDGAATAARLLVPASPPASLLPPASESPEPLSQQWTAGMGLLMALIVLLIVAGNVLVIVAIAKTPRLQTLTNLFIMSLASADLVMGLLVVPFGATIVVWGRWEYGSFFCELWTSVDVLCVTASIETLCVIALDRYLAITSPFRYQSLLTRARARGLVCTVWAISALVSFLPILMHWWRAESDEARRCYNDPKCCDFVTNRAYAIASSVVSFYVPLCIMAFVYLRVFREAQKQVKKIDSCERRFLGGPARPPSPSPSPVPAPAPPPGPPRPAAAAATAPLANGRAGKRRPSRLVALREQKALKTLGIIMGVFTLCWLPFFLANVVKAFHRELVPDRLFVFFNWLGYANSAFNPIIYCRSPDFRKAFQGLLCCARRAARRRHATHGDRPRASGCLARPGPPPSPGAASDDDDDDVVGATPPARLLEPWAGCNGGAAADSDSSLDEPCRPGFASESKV
Sodium-dependent noradrenaline transporter (Homo sapiens), sequence (P23975 whole entry): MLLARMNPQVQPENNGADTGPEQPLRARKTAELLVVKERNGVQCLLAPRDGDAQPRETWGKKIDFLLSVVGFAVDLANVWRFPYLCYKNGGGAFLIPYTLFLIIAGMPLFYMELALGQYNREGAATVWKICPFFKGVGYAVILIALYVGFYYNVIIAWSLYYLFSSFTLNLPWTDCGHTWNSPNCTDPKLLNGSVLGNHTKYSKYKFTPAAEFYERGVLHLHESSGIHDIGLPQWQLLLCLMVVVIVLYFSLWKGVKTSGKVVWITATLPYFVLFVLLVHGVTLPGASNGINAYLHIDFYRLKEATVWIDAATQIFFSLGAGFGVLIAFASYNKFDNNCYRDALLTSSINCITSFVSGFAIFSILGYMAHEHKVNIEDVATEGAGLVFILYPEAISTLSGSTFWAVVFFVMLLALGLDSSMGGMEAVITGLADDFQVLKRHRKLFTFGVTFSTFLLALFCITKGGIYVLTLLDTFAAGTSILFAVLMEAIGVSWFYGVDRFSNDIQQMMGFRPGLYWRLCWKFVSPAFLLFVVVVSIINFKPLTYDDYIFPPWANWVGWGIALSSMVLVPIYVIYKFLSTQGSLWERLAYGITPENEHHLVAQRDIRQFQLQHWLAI
Endothelin-1 receptor (Homo sapiens), sequence (P25101 whole entry): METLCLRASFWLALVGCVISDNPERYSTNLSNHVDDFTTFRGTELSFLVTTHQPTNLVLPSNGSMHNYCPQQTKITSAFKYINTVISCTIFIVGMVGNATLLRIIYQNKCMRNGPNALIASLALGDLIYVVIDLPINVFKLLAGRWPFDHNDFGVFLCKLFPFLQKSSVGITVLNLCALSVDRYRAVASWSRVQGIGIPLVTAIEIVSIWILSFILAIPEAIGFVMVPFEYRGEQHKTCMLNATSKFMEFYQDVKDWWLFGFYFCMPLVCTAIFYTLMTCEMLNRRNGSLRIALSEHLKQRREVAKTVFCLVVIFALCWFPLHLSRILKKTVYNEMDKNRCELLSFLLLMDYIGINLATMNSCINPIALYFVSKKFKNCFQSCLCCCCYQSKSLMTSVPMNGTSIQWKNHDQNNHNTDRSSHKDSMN

Regarding `CCC(=N\O)/C(C)=C/c1ccc(F)cc1` [A-079], the inhibition in data set [1] is 5%; in data set [2], 0%; in data set [3], 2%; in [4], 6%; in data set [5], 5%; in [6] it was -4%. Also, the inhibition in data set [7] is 7%; in [8], -4%; in data set [9], 6%; in data set [10], 32%; in data set [11], 5%; in data set [12], 1%. For the same molecule, the inhibition was 6% in data set [13]; -6% in data set [14]; 14% in data set [15]; -3% in data set [16]; 4% in data set [17]; -1% in data set [19]. In addition, the inhibition at 10 µM in data set [18] is on record as 3% (not active).
On to `CCC(=N\O)/C(C)=C/c1ccc(F)c(C)c1` [A-226], for which the inhibition in [20] was 10.2%. Further, the residual activity in data set [21] is 86%.
